Here are results for one compound from PMC11455950, “Effects of SZV-2649, a new multiple ion channel inhibitor mexiletine analogue” (Scientific Reports, 2024).

In one experiment the test system is anesthetized rats. Description: Coronary artery occlusion/reperfusion-induced ventricular arrhythmias in anesthetized rats. Format: in vivo, rat. The text has this:
The effects of SZV-2649 were further studied in the acute ischemia-induced ventricular arrhythmia model in anasthetized rats. Mexiletine and dofetilide were used as reference compounds for comparison.
The surgical procedure was based on a modified method described in detail in Gömöri et al. (2020)[62]. Pentobarbital-anesthetized male Wistar-Hannover rats were mechanically ventilated and subjected to thoracic surgery to perform a 6-min coronary artery occlusion and 5-min of reperfusion for the development of ischemia-induced ventricular arrhythmias (see Fig. 6A). The right jugular vein was cannulated for the administration of SZV-2649, vehicle, mexiletine or dofetilide, and the right carotid artery was used to measure blood pressure. The three-lead electrocardiogram and body temperature were continuously registered. Ten to twelve rats per group were administered vehicle (dimethyl sulfoxide, 200 µL/kg) or the studied drugs (see above), 2 min before the onset of ischemia as a slow i.v. bolus injection through the right jugular vein. At the end of 5-min reperfusion, hearts were isolated, mounted onto a Langendorff perfusion system, and after re-occluding the coronary artery, were perfused with 5-mL of 70% ethanol via the ascending aorta to delineate the ischemic risk zone. Then the left ventricles were cut along the demarcation lines of denatured area, and the sections were weighed to determine the area of risk to normalize the extent of the ischaemic insult. We evaluated the occurrence of ventricular arrhythmias based on the recommendations of the modified Lambeth Conventions published previously by Curtis et al. (2013)[63].

In experiment [1] the test system is dog right ventricular muscle preparations. Description: Conventional microelectrode action potential recording, dog ventricular muscle. To be noted: for APA / APD50 / APD90 / RP / Vmax: ventricular muscle, CL = 1000 ms, n = 8. As to the method:
The effects of SZV-2649 on action potentials were studied in dog ventricular, atrial and Purkinje fiber preparations.
The Class I antiarrhythmic property of SZV-2649 was further studied with different frequency-dependent protocols. […]. Action potentials were recorded in cardiac ventricular trabeculae and papillary muscle preparations obtained from the right ventricles of Beagle dogs (10–15 kg) of either sex using the conventional microelectrode technique. Dogs were sacrificed by iv. sedation with xylazine (1 mg/kg), followed by i.v. administration of 50 mg/kg pentobarbital. After the cornea reflex disapeared the chest was opened, and the heart was rapidly removed. The heart was immediately rinsed in oxygenated modified Locke’s solution containing (in mM): NaCl 128.3, KCl 4, CaCl2 1.8, MgCl2 0.42, NaHCO3 21.4, and glucose 10. The pH of this solution was set between 7.35 and 7.4 when gassed with the mixture of 95% O2 and 5% CO2 at 37 °C.
Isolated papillary muscle or atrial trabecula and Purkinje fiber preparations were obtained and prepared from the right ventricle and were individually mounted in a tissue chamber with the volume of 50 ml. Each preparation was initially stimulated through a pair of platinum electrodes in contact with the preparation using rectangular current pulses of 2 ms duration. These stimuli were delivered at a constant cycle length of 1000 ms for at least 60 min allowing the preparation to equilibrate before the measurements were initiated. Transmembrane potentials were recorded using conventional glass microelectrodes, filled with 3 M KCl and having tip resistances of 5–20 MΩ, connected to the input of a high impedance electrometer (Experimetria, type 309, Budapest, Hungary) which was coupled to a dual beam oscilloscope. […] Stimulation with a constant cycle length of 1000 ms was applied in the course of all experiments. Attempts were made to maintain the same impalement throughout each experiment. In case an impalement became dislodged, adjustment was attempted, and if the action potential characteristics of the re-established impalement deviated by less than 5% from the previous measurement, the experiment continued[64]–[67]. All measurements were carried out at 37 °C.

Experiment [2] has the same test system. The description is as above. To be noted: 10 µM.

In the case of `CC(N)COc1c(I)cc(C#N)cc1I.Cl` (centres unmarked) [SZV-2649, 4-(2-aminopropoxy)-3,5-diiodobenzonitrile hydrochloride], the “Effect on incidence of ventricular arrhythmias” value in the experiment on anesthetized rats (6 min coronary artery occlusion / 5 min reperfusion, i.v. 2 min before ischemia) was “markedly reduced”. Moreover, the “Incidence of ventricular fibrillation (VF)” value in the experiment with anesthetized rats (during reperfusion, over 50% in control animals) is 0%. Moreover, the “Effect on heart rate” value in the experiment on anesthetized rats (i.v. administration, anesthetized rats) is given as “significantly decreased”. In experiment [1] (5 µM), this compound had an APA of 118.3 ± 1.9 mV, an APD50 of 212.2 ± 5.7 ms, an APD90 of 251.6 ± 4.0 ms and an RP of −84.5 ± 2.0 mV. Moreover, the Vmax in experiment [1] (5 µM) was 227.4 ± 24.2 V/s. In experiment [1] (10 µM, dog ventricular muscle, premature stimulation from 1 Hz basic frequency), the “Recovery time constant of Vmax (offset kinetics of Vmax block, τoffset)” value is reported as 590 ms. In experiment [1] (10 µM), this compound yielded an APA of 117.1 ± 2.1 mV, an APD50 of 213.4 ± 5.8 ms, an APD90 of 252.8 ± 5.0 ms and an RP of −86.1 ± 2.0 mV. Besides, in experiment [1] (10 µM), the Vmax amounted to 203.2 ± 24.3 V/s. The Vmax in experiment [1] ([…]) is 228.3 ± 23.5 V/s. In addition, the “Onset kinetics of Vmax block” value in experiment [2] (after 1 min rest, stimulation cycle length 400 ms) stood at 3.1. Also, the “Effect on Vmax as a function of stimulation cycle length” value in experiment [2] (dog ventricular muscle, steady-state stimulation) is “decreased Vmax at cycle lengths shorter than 2000 ms”.
